Test system: TNF-α production in LPS-stimulated human whole blood
Test: Inhibition of TNF-α production from human whole blood (hWBA)
Type: cell-based
Details: Homo sapiens, IC50 for inhibition of TNF-α production, LPS-stimulated human whole blood; read-out: hWBA

IC50 | Structure (SMILES)
3130 nM | COc1ccc2c(c1)C(=O)N(C[C@@]1(C#Cc3ccc(CN4CCN(c5nccs5)CC4)cc3)NC(=O)NC1=O)C2 [Compound 980]
290 nM | COc1ccc2c(c1F)C(=O)N(C[C@@]1(C#Cc3ccc(CN4CCN(c5ccncc5)CC4)cc3)NC(=O)NC1=O)C2 [Compound 981]
255 nM | COc1ccc2c(c1F)C(=O)N(C[C@@]1(C#Cc3ccc(CN4CCN(C5CCCCC5)CC4)cc3)NC(=O)NC1=O)C2 [Compound 982]
100000 nM | COc1ccc2c(c1F)C(=O)N(C[C@]1(C#Cc3ccc(CN4CCN(C5CCCCC5)CC4)cc3)NC(=O)NC1=O)C2 [Compound 985]
2430 nM | COc1ccc2c(c1F)C(=O)N(C[C@@]1(C#Cc3ccc(-c4cccc(N5CCN(C6CCCCC6)CC5)n4)c(F)c3)NC(=O)NC1=O)C2 [Compound 994]
2560 nM | COc1ccc2c(c1F)C(=O)N(C[C@@]1(C#Cc3ccc(-c4cccc(N5CCOCC5)n4)c(F)c3)NC(=O)NC1=O)C2 [Compound 996]
4320 nM | COc1ccc2c(c1)C(=O)N(C[C@@]1(C#Cc3cccc(N4CCSCC4)n3)NC(=O)NC1=O)C2 [Compound 997]
106 nM | COc1ccc2c(c1F)C(=O)N(C[C@@]1(C#Cc3ccc(-c4nc(-c5cccnc5)ccc4O)cc3)NC(=O)NC1=O)C2 [Compound 1001]
119 nM | COc1ccc2c(c1F)C(=O)N(C[C@@]1(C#Cc3ccc(-c4nc(-c5cccnc5)ccc4O)c(F)c3)NC(=O)NC1=O)C2 [Compound 1002]
5380 nM | COc1ccc2c(c1)C(=O)N(C[C@@]1(C#Cc3ccc(-c4cnccc4OC)nc3)NC(=O)NC1=O)C2 [Compound 1105]
524 nM | COc1ccc2c(c1)C(=O)N(C[C@@]1(C#Cc3ccc(-n4cnc(CCNC(C)=O)c4)nc3)NC(=O)NC1=O)C2 [Compound 1130]
504 nM | COc1ccc2c(c1)C(=O)N(C[C@@]1(C#Cc3ccc(C4=NCCN4)c(C)c3)NC(=O)NC1=O)C2 [Compound 1140]
786 nM | COc1ccc2c(c1)C(=O)N(C[C@@]1(C#Cc3ccc(-n4ccnc4)cc3)NC(=O)NC1=O)C2 [Compound 1160]
1140 nM | COc1ccc2c(c1)C(=O)N(C[C@@]1(C#Cc3ccc(-n4cncn4)cc3)NC(=O)NC1=O)C2 [Compound 1170]
9460 nM | COc1ccc2c(c1)C(=O)N(C[C@@]1(C#Cc3ccc(-c4ccc(F)cc4O)nc3)NC(=O)NC1=O)C2 [Compound 1316]
> 1000 nM | COc1ccc2c(c1)C(=O)N(CC1(C#Cc3cccc4c3CCC43NC(=O)NC3=O)NC(=O)NC1=O)C2 (centres unmarked) [Compound 1318]
1e+06 nM | COc1ccc2c(c1)C(=O)N(C[C@@]1(C#Cc3nc(-c4cccc(C#N)c4)ccc3OC)NC(=O)NC1=O)C2 [Compound 1501]
1170 nM | COc1ccc(N2CCC2=O)nc1C#C[C@]1(CN2Cc3ccc(OC)c(F)c3C2=O)NC(=O)NC1=O [Compound 1508]
514 nM | COc1ccc2c(c1)C(=O)N(C[C@@]1(C#Cc3ccc(N4CCCCC4)nc3)NC(=O)NC1=O)C2 [Compound 1509]

Same assay, conditions: Homo sapiens, read-out: hWBA (nM)

Structure (SMILES) | IC50
COc1ccc2c(c1F)C(=O)N(C[C@@]1(C#Cc3ccc(C4(C#N)CCN(C)CC4)cc3)NC(=O)NC1=O)C2 [Compound 1313] | 669 nM

Same assay, conditions: IC50 for inhibition of TNF-α production, LPS-stimulated human whole blood

Structure (SMILES) | hWBA (nM)
COc1ccc2c(c1)C(=O)N(C[C@@]1(C#Cc3ccc(-c4cccc(Cl)c4O)nc3)NC(=O)NC1=O)C2 [Compound 1315] | Inactive

Same assay, conditions: IC50 for inhibition of TNF-α production, LPS-stimulated human whole blood; read-out: hWBA

IC50 | Structure (SMILES)
61.6 nM | COc1ccc2c(c1)C(=O)N(C[C@@]1(C#Cc3ccc(-c4nc(-c5cccnc5)ccc4OC(C)=O)cc3)NC(=O)NC1=O)C2 [Compound 975]
39.8 nM | CCN1CCN(c2ccc(O)c(-c3ccc(C#C[C@]4(CN5Cc6ccc(OC)cc6C5=O)NC(=O)NC4=O)cc3F)n2)CC1 [Compound 976]
782 nM | CCN1CCN(Cc2ccc(C#C[C@]3(CN4Cc5ccc(OC)cc5C4=O)NC(=O)NC3=O)cn2)CC1 [Compound 977]
156 nM | CCN1CCN(Cc2ccc(C#C[C@]3(CN4Cc5ccc(OC)c(F)c5C4=O)NC(=O)NC3=O)cn2)CC1 [Compound 978]
228 nM | COc1ccc2c(c1F)C(=O)N(C[C@@]1(C#Cc3ccc(CN4CCN(c5ccncc5)CC4)nc3)NC(=O)NC1=O)C2 [Compound 979]
250 nM | CCN1CCN(Cc2ccc(C#C[C@]3(CN4Cc5ccc(OC)c(F)c5C4=O)NC(=O)NC3=O)cc2F)CC1 [Compound 983]
695 nM | CCN1CCN(C(C)c2ccc(C#C[C@]3(CN4Cc5ccc(OC)c(F)c5C4=O)NC(=O)NC3=O)cc2)CC1 (some centres unmarked) [Compound 984]
87 nM | COc1ccc2c(c1F)C(=O)N(C[C@@]1(C#Cc3ccc(-c4nc(-c5cnn(C)c5)ccc4O)cc3)NC(=O)NC1=O)C2 [Compound 986]
75.4 nM | COc1ccc2c(c1F)C(=O)N(C[C@@]1(C#Cc3ccc(-c4nc(-c5cnn(C)c5)ccc4O)c(F)c3)NC(=O)NC1=O)C2 [Compound 987]
42.8 nM | COc1ccc2c(c1)C(=O)N(C[C@@]1(C#Cc3ccc(-c4nc(-c5cnn(C)c5)ccc4OC(=O)C(C)(C)C)cc3)NC(=O)NC1=O)C2 [Compound 990]
606 nM | CCN1CCN(c2cccc(-c3ccc(C#C[C@]4(CN5Cc6ccc(OC)c(F)c6C5=O)NC(=O)NC4=O)cc3)n2)CC1 [Compound 991]
808 nM | CCN1CCN(c2cccc(-c3ccc(C#C[C@]4(CN5Cc6ccc(OC)c(F)c6C5=O)NC(=O)NC4=O)cc3F)n2)CC1 [Compound 992]
856 nM | COc1ccc2c(c1F)C(=O)N(C[C@@]1(C#Cc3ccc(-c4cccc(N5CCN(C6CCCCC6)CC5)n4)cc3)NC(=O)NC1=O)C2 [Compound 993]
1640 nM | COc1ccc2c(c1F)C(=O)N(C[C@@]1(C#Cc3ccc(-c4cccc(N5CCOCC5)n4)cc3)NC(=O)NC1=O)C2 [Compound 995]
4150 nM | COc1ccc2c(c1F)C(=O)N(C[C@@]1(C#Cc3ccc(-c4cccc(N5CCSCC5)n4)cc3)NC(=O)NC1=O)C2 [Compound 999]
124 nM | COc1ccc2c(c1F)C(=O)N(C[C@@]1(C#Cc3ccc(-c4nc(N5CCC(=O)CC5)ccc4O)cc3)NC(=O)NC1=O)C2 [Compound 1003]
68.5 nM | COc1ccc2c(c1F)C(=O)N(C[C@@]1(C#Cc3ccc(-c4nc(-c5cnn(C)c5)ccc4OC(=O)C(C)(C)C)c(F)c3)NC(=O)NC1=O)C2 [Compound 1006]
342 nM | COc1ccc2c(c1)C(=O)N(C[C@@]1(C#Cc3ccc(-c4ncccc4OC(=O)C(C)(C)C)cc3)NC(=O)NC1=O)C2 [Compound 1008]
96 nM | COc1ccc2c(c1F)C(=O)N(C[C@@]1(C#Cc3ccc(-c4ncccc4O)cc3)NC(=O)NC1=O)C2 [Compound 1010]
2390 nM | COc1ccc2c(c1)C(=O)N(C[C@@]1(C#Cc3ccc(-c4cnccc4C)nc3)NC(=O)NC1=O)C2 [Compound 1100]
176 nM | COc1ccc2c(c1)C(=O)N(C[C@@]1(C#Cc3ccc(C4(CNS(C)(=O)=O)NC(=O)NC4=O)cc3)NC(=O)NC1=O)C2 (some centres unmarked) [Compound 1110]

IC50 | Structure (SMILES)
453 nM | COc1ccc2c(c1)C(=O)N(C[C@@]1(C#Cc3ccc(-n4cnc(CCNC(C)=O)c4)cc3)NC(=O)NC1=O)C2 [Compound 1120]
1620 nM | COc1ccc2c(c1)C(=O)N(C[C@@]1(C#Cc3ccc(N4CCNC4=O)cc3)NC(=O)NC1=O)C2 [Compound 1150]
3500 nM | COc1ccc2c(c1)C(=O)N(C[C@@]1(C#Cc3ccc(-c4cccc(C)c4O)nc3)NC(=O)NC1=O)C2 [Compound 1300]
766 nM | COc1ccc2c(c1)C(=O)N(C[C@@]1(C#Cc3ccc(-c4ccc(C)nc4O)nc3)NC(=O)NC1=O)C2 [Compound 1301]
488 nM | COc1ccc2c(c1)C(=O)N(C[C@@]1(C#Cc3ccc(-c4c(C)n[nH]c4N)cc3)NC(=O)NC1=O)C2 [Compound 1303]
367 nM | COc1ccc2c(c1F)C(=O)N(C[C@@]1(C#Cc3ccc4c(c3)C3(CC4)NC(=O)NC3=O)NC(=O)NC1=O)C2 (some centres unmarked) [Compound 1304]
169 nM | COc1ccc2c(c1)C(=O)N(C[C@@]1(C#Cc3ccc(Nc4c(NCCN5CCOCC5)c(=O)c4=O)cc3)NC(=O)NC1=O)C2 [Compound 1306]
161 nM | COc1ccc2c(c1)C(=O)N(C[C@@]1(C#Cc3ccc(Nc4c(NCCN(C)C)c(=O)c4=O)cc3)NC(=O)NC1=O)C2 [Compound 1307]
306 nM | COc1ccc2c(c1)C(=O)N(C[C@@]1(C#Cc3ccc(Nc4c(N)c(=O)c4=O)cc3)NC(=O)NC1=O)C2 [Compound 1308]
42 nM | COc1ccc2c(c1F)C(=O)N(C[C@@]1(C#Cc3ccc(/C(=N/O)N4CCNC[C@@H]4C)c(F)c3)NC(=O)NC1=O)C2 [Compound 1309]
69 nM | CCN1CCN(/C(=N\O)c2ccc(C#C[C@]3(CN4Cc5ccc(OC)c(F)c5C4=O)NC(=O)NC3=O)cc2F)[C@@H](C)C1 [Compound 1311]
935 nM | COc1ccc2c(c1F)C(=O)N(C[C@@]1(C#Cc3cc(F)cnc3Cl)NC(=O)NC1=O)C2 [Compound 1312]
148 nM | COc1ccc2c(c1F)C(=O)N(C[C@@]1(C#Cc3ccc(N4C(=O)NC5(CC5)C4=O)c(F)c3)NC(=O)NC1=O)C2 [Compound 1317]
940 nM | CCN1CCN(C(=O)C2CC(=O)N(c3ccc(C#C[C@]4(CN5Cc6ccc(OC)cc6C5=O)NC(=O)NC4=O)cc3)C2)CC1 (some centres unmarked) [Compound 1319]
3590 nM | COc1ccc2c(c1)C(=O)N(C[C@@]1(C#Cc3nc(N4CC[C@H](O)C4=O)ccc3OC)NC(=O)NC1=O)C2 [Compound 1504]
9540 nM | COc1ccc2c(c1)C(=O)N(C[C@@]1(C#Cc3nc(N4C(=O)CCC4C)ccc3OC)NC(=O)NC1=O)C2 (some centres unmarked) [Compound 1506]
5710 nM | COCCN1CCN(c2ccc(OC)c(C#C[C@]3(CN4Cc5ccc(OC)cc5C4=O)NC(=O)NC3=O)n2)CC1 [Compound 1507]
10000 nM | COc1ccc2c(c1)C(=O)N(C[C@@]1(C#Cc3nc(-c4cnc(N(C)C)nc4)ccc3OC)NC(=O)NC1=O)C2 [Compound 1510]
2050 nM | COc1ccc2c(c1)C(=O)N(C[C@@]1(C#Cc3nc(-c4ccc(N5CCNCC5)nc4)ccc3OC)NC(=O)NC1=O)C2 [Compound 1511]
7040 nM | COc1ccc2c(c1)C(=O)N(C[C@@]1(C#Cc3nc(-c4ccc(S(=O)(=O)NC5CC5)cc4)ccc3OC)NC(=O)NC1=O)C2 [Compound 1512]

From patent publication US8541572B2
